Test results as given in patent publication US20250057960A1, “OLIGOSACCHARIDE COMPLEXES AND USES” (BioNTech SE, priority 2021, published 2025).

What was measured:
hPBMCs = test: Secretion of pro-inflammatory cytokines and chemokines in hPBMCs after transfection with modRNA formulations (Example 10); type: cell-based, human; conditions: incorporated into cationic oligosaccharide (JLF218)+Tween40 modRNA complex, 1:0.5:0.5 molar ratio, N/P6; 24 hours after transfection; FIGS. 10A to 10D
Source text: The present example provides complexes comprising a third component which can inhibit the immune response against the expressed protein from the delivered RNA, avoiding pro-inflammatory signals that can hamper the therapeutic effect of RNA-therapy. In the present experiment, a TLR4 inhibitor molecule, TAK-242, was used alone or together with a wide spectrum immunosuppressor, dexamethasone, in combination with cationic oligosaccharides described herein+Tween40 to formulate modRNA encoding for luciferase.
In the first part of the experiment, secretion of pro-inflammatory cytokines in hPBMCs was evaluated for two different cationic oligosaccharides: JLF218 and PRX093, whereas different combinations including TAK-242 and/or Dexamethasone are tested. […] IL-6, TNF-α, IL-1β, IFN-γ, MIP-1β, IP-10 and MCP-1 secretion after 24 hours of transfection of 5×105 hPMBCs was evaluated in the supernatants using MSD Kit Standard Protocol. Primary human hepatocytes were transfected with a dose variation between 0.01-1 μg of modRNA and luciferase expression is evaluated over the course of 6 days.
FIG. 10A is a scatter plot illustrating quantified IL-6 secretion in hPBMCs upon exposure to different doses of tested formulations. FIG. 10B is a scatter plot illustrating quantified TNF-α secretion in hPBMCs upon exposure to different doses of tested formulations. […]

human PBMCs = test: Pro-inflammatory cytokine secretion in human PBMCs with alternative TLR inhibitors (Example 14); type: cell-based; conditions: in JLF218+Tween40+TL2-C29 (1:0.5:0.5) modRNA formulation, N/P6; 24 hours after transfection
Method: The present example evaluated the impact of different TLR inhibitors. Pro-inflamatory cytokine secretion in human PBMCs was evaluated for two different oligosaccharide formulations (JLF218 and JLF244) in combination with either TAK-242 or TL2-C29. Six formulations were tested, as illustrated in table below: […]
All formulations were complexed with modRNA (coding for firefly luciferase) formulated at N/P6. Formulations were complexed in MBG Buffer (final concentration 5% w/v Glucose, 10 mM MES, pH 6.1), at RNA final concentration of 0.15 mg/mL and the mixing ratio of the RNA containing solution and the oligosccharide+Tween40 (+TAK-242 or TL2-C29 as indicated) containing solution was 9:1 (v:v) for all the cases.
IL-6, TNFα, IL1b, IFNg, MIP1b, IP10 and MCP1 secretion was evaluated 24 hours after transfection of 1e^6 human PMBCs in supernatant using the MSD Kit Standard Protocol. Cell viability was evaluated using a XTT Standard Assay. In the following figures, C29 refers to TL2-C29. FIG. 12A is a plot illustrating IL-6 secretion of human PBMCs (hPMBCs) for different doses of tested formulations. FIG. 12B is a plot illustrating TNFa secretion of hPBMCs for different doses of tested formulations. FIG. 12C is a plot illustrating IL1b secretion of hPBMCs for different doses of tested formulations. […]

SMILES | secretion of pro-inflammatory cytokines (IL-6, TNF-α, IL-1β, IFN-γ) (hPBMCs) | secretion of pro-inflammatory cytokines (human PBMCs)
CCOC(=O)C1=CCCC[C@H]1S(=O)(=O)Nc1ccc(F)cc1Cl [TAK-242] | reduction of pro-inflammatory cytokines | 
COc1cccc(/C=N/c2cccc(C(=O)O)c2C)c1O [TL2-C29] |  | able to inhibit
